# Measured values taken from publication PMC11084427 (2024).
# Experiments:
# [1] = test system: poly dA-poly dT (pdApdT) (DNA, polymer) A/T; test: fluorescence titration, Scatchard; details: Na+ (sodium cacodylate, I = 0.05 M); pH 7.0, 25 °C; per phosphate; per base
# [2] = test system: poly A-poly U (pApU) (RNA, polymer) A/U; test: UV melting, 260 nm; details: Na+ (sodium cacodylate, I = 0.05 M); pH 7.0; compound/polynucleotide r = 0.3; per base
# [3] = test system: dAdTdT (ATT) triplex (DNA, polymer) A/T/T; test: UV melting, 260 nm; details: Na+ (sodium cacodylate with NaCl, I = 0.1 M); pH 7.0, 1 mM EDTA; 7.5 μM compound, r = 0.3; transition Tm3→1 (third strand); per base
# [4] = test system: poly(dAdT)2 (DNA, polymer) AT; test: UV melting, 260 nm; details: Na+ (sodium cacodylate, I = 0.05 M); pH 7.0; compound/polynucleotide r = 0.3; per base
# [5] = test system: dAdTdT (ATT) triplex (DNA, polymer) A/T/T; test: fluorescence titration, Scatchard; details: Na+ (sodium cacodylate, I = 0.05 M); pH 7.0, 25 °C; per phosphate; per base
# [6] = test system: poly(dGdC)2 (DNA, polymer) GC; test: fluorescence titration, Scatchard; details: Na+ (sodium cacodylate, I = 0.05 M); pH 7.0, 25 °C; per phosphate; per base
# [7] = test system: poly A-poly U (pApU) (RNA, polymer) A/U; test: fluorescence titration, Scatchard; details: Na+ (sodium cacodylate, I = 0.05 M), per phosphate, per base
# [8] = test system: poly dA-poly dT (pdApdT) (DNA, polymer) A/T; test: UV melting, 260 nm; details: Na+ (sodium cacodylate, I = 0.05 M), pH 7.0, per base
# [9] = test system: poly(dAdT)2 (DNA, polymer) AT; test: fluorescence titration, Scatchard; details: Na+ (sodium cacodylate, I = 0.05 M); pH 7.0, 25 °C; per phosphate; per base
# [10] = compound/polynucleotide r = 0.3
log Ka [1],ΔTm [2] [°C],ΔTm [3] [°C],ΔTm [4] [°C],log Ka [5],log Ka [6],"log Ka ([7]; pH 7.0, 25 °C)","ΔTm ([8]; r = 0.3, biphasic, second transition) [°C]",log Ka [9],"log Ka ([7]; pH 5.0, 25 °C, not determinable at pH 7.0)","ΔTm [8, 10] [°C]",Structure (SMILES)
6.6,2.5 ± 0.5,1.1 ± 0.5,1.0 ± 0.5,7.4,5.8,7.1,2.1 ± 0.5,6.7,,,COC(=O)[C@H](Cc1ccc2c(c1)c(C)nc1ccccc12)NC(=O)[C@H](CCCCN)NC(=O)CNC(=O)c1ccc(C(=O)NC(=N)N)[nH]1
,0 ± 0.5,,2.6 ± 0.5,,6.1,,,6.7,5.5,1.5 ± 0.5,COC(=O)[C@H](Cc1ccc2c(c1)c(C)nc1ccccc12)NC(=O)CNC(=O)[C@H](CCCCN)NC(=O)c1ccc(C(=O)NC(=N)N)[nH]1
,0 ± 0.5,,1.2 ± 0.5,,,,,,,0.7 ± 0.5,COC(=O)[C@H](Cc1ccc2c(c1)c(C)nc1ccccc12)NC(=O)CNC(=O)CNC(=O)c1ccc(C(=O)NC(=N)N)[nH]1
